Tests used:
yeast Hsp90 (Hsp82) [1] = molecular target: T1, yeast Hsp90 (Hsp82) (Saccharomyces cerevisiae, UniProt P02829); experiment: PU-bead capture from yeast lysate; type: cell-based
T1 construct: wild-type NMC; coilNMC also measured

yeast Hsp90 (Hsp82) [2] = molecular target: T1, yeast Hsp90 (Hsp82); experiment: BODIPY-GA anisotropy/displacement; GA-bead capture from yeast lysate; type: binding
Hsp90β = molecular target: T2, Hsp90β (Homo sapiens, UniProt P08238)
T2 construct: gene HSP90AB1
T2 sequence (P08238 2-724): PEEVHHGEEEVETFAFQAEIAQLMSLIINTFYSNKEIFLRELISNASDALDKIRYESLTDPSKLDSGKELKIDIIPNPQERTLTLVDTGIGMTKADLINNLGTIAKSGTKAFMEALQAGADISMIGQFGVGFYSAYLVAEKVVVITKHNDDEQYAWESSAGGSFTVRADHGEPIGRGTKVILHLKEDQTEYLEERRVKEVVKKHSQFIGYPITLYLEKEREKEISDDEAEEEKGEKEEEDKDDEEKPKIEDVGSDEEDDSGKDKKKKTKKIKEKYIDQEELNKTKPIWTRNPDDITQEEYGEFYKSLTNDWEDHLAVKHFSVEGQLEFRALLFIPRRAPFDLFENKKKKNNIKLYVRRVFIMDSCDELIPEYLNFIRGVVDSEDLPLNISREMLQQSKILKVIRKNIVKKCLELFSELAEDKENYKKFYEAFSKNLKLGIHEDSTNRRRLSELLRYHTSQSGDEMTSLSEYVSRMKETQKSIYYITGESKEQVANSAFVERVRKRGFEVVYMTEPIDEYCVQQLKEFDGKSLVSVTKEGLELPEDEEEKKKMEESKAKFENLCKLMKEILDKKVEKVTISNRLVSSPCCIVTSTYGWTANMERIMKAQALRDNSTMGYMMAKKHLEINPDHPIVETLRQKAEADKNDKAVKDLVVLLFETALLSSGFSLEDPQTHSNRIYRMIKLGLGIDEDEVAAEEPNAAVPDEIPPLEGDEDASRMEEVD

yeast Hsp90 = molecular target: T3, yeast Hsp90 (Saccharomyces cerevisiae, UniProt P02829); experiment: DMS cross-linking of N domain dimers; p23 binding by fluorescence anisotropy; type: biochemical
T3 construct: gene HSP82; purified yeast Hsp90
T3 sequence (P02829 whole entry): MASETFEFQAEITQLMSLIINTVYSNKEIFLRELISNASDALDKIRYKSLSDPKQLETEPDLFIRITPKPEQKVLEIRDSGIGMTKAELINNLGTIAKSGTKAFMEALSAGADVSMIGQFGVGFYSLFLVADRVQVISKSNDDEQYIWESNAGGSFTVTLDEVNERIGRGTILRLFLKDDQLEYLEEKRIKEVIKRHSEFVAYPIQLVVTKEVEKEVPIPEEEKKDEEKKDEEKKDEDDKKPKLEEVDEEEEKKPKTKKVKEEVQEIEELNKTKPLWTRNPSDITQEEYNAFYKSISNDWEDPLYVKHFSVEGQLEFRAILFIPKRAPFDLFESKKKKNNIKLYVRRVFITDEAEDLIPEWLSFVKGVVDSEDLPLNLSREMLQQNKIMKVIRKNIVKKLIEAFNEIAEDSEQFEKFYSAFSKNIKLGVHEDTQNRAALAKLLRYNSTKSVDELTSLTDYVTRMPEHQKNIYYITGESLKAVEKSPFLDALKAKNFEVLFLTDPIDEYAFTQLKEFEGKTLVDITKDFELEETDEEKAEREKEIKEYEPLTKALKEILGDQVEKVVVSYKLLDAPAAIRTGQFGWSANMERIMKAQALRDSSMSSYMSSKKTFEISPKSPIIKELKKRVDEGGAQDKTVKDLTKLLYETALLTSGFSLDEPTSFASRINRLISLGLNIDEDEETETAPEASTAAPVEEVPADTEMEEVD

T1 sequence (P02829 whole entry): as above

CC(C)NCCCn1c(Sc2cc3c(cc2I)OCO3)nc2c(N)ncnc21 [PU, PU-H71]
PU-bead capture from yeast lysate (yeast Hsp90 (Hsp82) [1]): both GA- and PU-beads efficiently isolated coiled-coil Hsp90 from yeast lysates, compared to wild-type Hsp90

COC1=C2C[C@@H](C)C[C@H](OC)[C@H](O)[C@@H](C)/C=C(\C)[C@H](OC(N)=O)[C@@H](OC)/C=C\C=C(/C)C(=O)NC(=CC1=O)C2=O [GA, geldanamycin]
BODIPY-GA anisotropy/displacement; GA-bead capture from yeast lysate (yeast Hsp90 (Hsp82) [2]): Coiled-coil yeast Hsp90 (coilNMC) has a similar affinity for GA as wild-type Hsp90 (NMC) | GA-agarose capture of Flag-Hsp90β from 293-H cell lysate (Hsp90β): GA-beads bound the non-phosphorylatable mutants (Hsp90α-Y197F and Hsp90β-Y192F) similarly to wild-type Hsp90

Nc1ncnc2c1ncn2[C@@H]1O[C@H](CO[P@](=O)(O)O[P@](=O)(O)NP(=O)(O)O)[C@@H](O)[C@H]1O [AMP-PNP]
DMS cross-linking of N domain dimers; p23 binding by fluorescence anisotropy (yeast Hsp90): Only AMP-PNP promoted significant N domain dimerization (Figure 2F).

Source: paper PMC3759666, “Post-translational modification and conformational state of Heat Shock Protein 90 differentially affect binding of chemically diverse small molecule inhibitors” (Oncotarget, 2013)
